Source: patent US20050282745A1, “Non-mammalian GnRH analogs and uses thereof in regulation of fertility and pregnancy” (priority 2001, published 2005)
Read-outs that look alike come from different tables or passages of the source.

Key:
[1] = tested on: chorionic peptidase-1 (C-ase-1); conditions: neutral pH; read-out: Km for degradation by C-ase-1; cited from earlier work
[2] = target: human placental GnRH receptor; experiment: Placental GnRH receptor binding, 125I-Buserelin label
Procedure: The newly synthesized non-mammalian GnRH analogs and other commercially available mammalian GnRH analogs were used in placental receptors binding and enzyme stability study described here. […] GnRH receptors were purified from the membrane fractions from placentas. The purification procedure for the placental GnRH receptor was performed using a modification of the method described by Bramley et al., which reference is specifically incorporated herein by reference for the purpose. Addition of enzyme inhibitors for the endogenous C-ase-1 were used as well as agents for receptor stabilization. Initially, receptor-binding assays using ^125I-Buserelin as label were performed. The competitive binding of each of the analogs was studied over a dose range of 10^−11 to 10^−6 M. Incubation was at room temperature and receptor bound label was precipitated with polyethylene glycol. Specific and non-specific binding was determined. The data was subjected to Scatchard analysis. The non-mammalian GnRH analogs' ability to bind to the placental GnRH receptor was compared to that for synthetic mammalian GnRH (SEQ ID NO: 5), Buserelin (SEQ ID NO: 10) and other mammalian analogs. […] This way, the receptor affinity for that analog could be precisely determined. Receptors from three different term placentas were used to study each of these analogs. […] Bramley T A, McPhie C A, Menzies G S 1994 Human placental gonadotropin-releasing hormone (GnRH) binding sites: 111. […] Placenta 15:733-745.
In these and additional studies, placental GnRH receptors were purified from human term placentas after homogenization in 40 mM Tris (pH 7.4) and filtered through cheesecloth, followed by an initial centrifugation at 1,000×g for 10 minutes. The resulting supernatant was, again, centrifuged at 35,000×g for 30 minutes and the membrane pellet was collected and resuspended in Tris buffer with 0.3 M sucrose. The protein concentration was determined. Membranes were stored frozen at −20 C until use. Before use, placental membranes were diluted to 5,000 μg/mL with Tris buffer containing 0.5% BSA and 50 U/mL bacitracin. […] Following incubation at room temperature for 4 hours, the bound and free hormones were separated using polyethylene glycol precipitation, followed by centrifugation. The binding affinity for each GnRH isoform or analog was calculated using the double reciprocal plot of bound versus free ligand. Each study was done using three different human term placental tissues.
Receptor assays were performed by incubating human term placental GnRH receptors with varying concentrations of GnRH or its analogs in the presence of ^125I-Buserelin. The reaction was stopped and the bound hormone precipitated with polyethylene glycol.

[3] = tested on: baboon ovarian enzymatic activity
Procedure: In these studies the enzyme was in the ovarian extract.
In this assay, following incubation of the enzyme and GnRH, with and without the chosen analog, the reaction was stopped by heating and the remaining GnRH substrate was quantified by radioimmunoassay. The product formed is calculated by subtraction, and its inverse plotted against the inverse of the original substrate concentrations to determine the nature of the competition. The Ki was determined by plotting the inverse of the product formed versus the inhibitor used.

[4] = tested on: chorionic peptidase-1 (C-ase-1)
Procedure: (§1) Using the incubation system developed for the C-ase-1 activity, the degradation of each analog was tested. […] These studies were done using the C-ase-1 enzyme activity assay as described previously. […] The product formed was calculated by subtraction, and its inverse plotted against the inverse of the original substrate concentrations to determine the nature of the competition. The Ki was to be determined by plotting the inverse of the product that formed verses the inhibitor used.
(§2) The concentration of the product of the degraded GnRH was quantified by subtracting the remaining mammalian GnRH from the starting concentrations of mammalian GnRH. […] The Ks for the degradation of mammalian GnRH was calculated from the x axis intercept using Lineweaver-Burke double reciprocal plot of the concentration of the product formed versus the concentration of the substrate used.
(§3) The reaction was stopped by heating at 85° C. for 10 minutes. The remaining GnRH was determined using a specific radioimmunoassay. The formation of product, i.e., the N-terminal nonapeptide of GnRH, was calculated by subtraction and its inverse was plotted versus the inverse of the initial substrate to determine the Ks of the reaction. […] The relative potency of each analog was compared.
(§4) Using the incubation system developed for the C-ase-1 activity, the degradation of each analog was studied. […] The inverse of the product was plotted against the inverse of the original substrate concentrations to determine Ks of the competition. The Ki was determined by plotting the inverse of the product formed verses the inhibitor used.

[5] = tested on: chorionic peptidase-1 (C-ase-1); experiment: C-ase-1 enzyme activity assay, competition for degradation of GnRH
Procedure: as §1, §2, §3, §4

[6] = tested on: human term placental explants; experiment: Static explant culture, release of hCG, progesterone, PGE2; assay type: cell-based; conditions: 0.25-1.00 μM, four placentas
Description: The biological activity of the newly synthesized non-mammalian GnRH analogs was studied using a static implant culture system. This system allows for inexpensive extended activity studies. Mammalian GnRH action on the human placenta release of hCG, progesterone and prostaglandins were defined using this system. Replicate cultures were studied, thus allowing for comparison of different doses of each non-mammalian GnRH analog to mammalian GnRH (SEQ ID NO: 5), as well as direct competition assays. […] These studies were repeated using different human placentas. Siler-Khodr T M, Khodr G S, Valenzuela G, Rhode J 1986 Gonadotropin-releasing hormone effects on placental hormones during gestation: II. Progesterone, estrone, estradiol and estriol. Biol Reprod 34:255-264; Siler-Khodr T M, Khodr G S, Valenzuela G, Rhode J 1986 Gonadotropin-releasing hormone effects on placental hormones during gestation: 1 Alpha-human chorionic gonadotropin, human chorionic gonadotropin and human chorionic somatomammotropin. Biol Reprod 34:245-254; Siler-Khodr T M, Khodr G S, Valenzuela G, Harper J, Rhode J 1986 GnRH effects on placental hormones during gestation. 111 Prostaglandin E, prostaglandin F, and 13, 14-dihydro-15-keto-prostaglandin F. Biol Reprod 35:312-319.
In these and additional studies, an explant culture system was used to determine the effect of mammalian GnRH (SEQ ID NO: 5), chicken II GnRH (SEQ ID NO: 6), or the D-Arg(6)-chicken II GnRH-aza-Gly(10)-amide analog (SEQ ID NO: 2) on the release of the hCG, progesterone, and prostaglandin E2. Human term placentas were dissected free of membranes, minced into fragments of 5 mm, rinsed in medium, and a total weight of ˜100 mg (20 explants) was placed on a sterile filter paper resting on an organ culture grid such that they touched the surface of the culture medium, but were not immersed in it. The medium contained penicillin, streptomycin, and fungizone at 100 U/mL, 100 μg/mL, and 2.5 μg/mL respectively with and without varying doses of GnRH isoforms or analogs was added to each Petri dish. Triplicate chambers for each media were made and incubated at 37 C in a humidified chamber with an atmosphere of 5% CO2 and 95% air. Spent media were collected and replaced after 2 hours, 24 hours, and 48 hour of culture and stored frozen at −20° C. until assayed for hormones. HCG, progesterone, and PGE2 were measured using specific double antibody procedures as described previously. The chicken II GnRH analog (SEQ ID NO: 2) was studied using four different human term placentas, and the native chicken II GnRH isoform was also studied using one human term placenta. Gibbons J M, Mitnick M, Chieffo V 1975 In vitro biosynthesis, of TSH- and LH-releasing factors by the human placenta. Am J Obstet Gynecol 121:127-131.

[7] = tested on: human placental GnRH receptor; experiment: Placental GnRH receptor binding, radiolabeled D-Arg(6)-chicken II GnRH-aza-Gly(10)-amide label; conditions: versus Buserelin label
Procedure: The newly synthesized non-mammalian GnRH analogs and other commercially available mammalian GnRH analogs were used in placental receptors binding and enzyme stability study described here. On the basis of these studies, the most receptor potent and enzyme-stable analogs were chosen for further biopotency studies. GnRH receptors were purified from the membrane fractions from placentas. The purification procedure for the placental GnRH receptor was performed using a modification of the method described by Bramley et al., which reference is specifically incorporated herein by reference for the purpose. Addition of enzyme inhibitors for the endogenous C-ase-1 were used as well as agents for receptor stabilization. Initially, receptor-binding assays using ^125I-Buserelin as label were performed. The competitive binding of each of the analogs was studied over a dose range of 10^−11 to 10^−6 M. Incubation was at room temperature and receptor bound label was precipitated with polyethylene glycol. Specific and non-specific binding was determined. The data was subjected to Scatchard analysis. The non-mammalian GnRH analogs' ability to bind to the placental GnRH receptor was compared to that for synthetic mammalian GnRH (SEQ ID NO: 5), Buserelin (SEQ ID NO: 10) and other mammalian analogs. […] This way, the receptor affinity for that analog could be precisely determined. Receptors from three different term placentas were used to study each of these analogs. […] Bramley T A, McPhie C A, Menzies G S 1994 Human placental gonadotropin-releasing hormone (GnRH) binding sites: 111. Changes in GnRH binding levels with stage of gestation. Placenta 15:733-745.
In these and additional studies, placental GnRH receptors were purified from human term placentas after homogenization in 40 mM Tris (pH 7.4) and filtered through cheesecloth, followed by an initial centrifugation at 1,000×g for 10 minutes. The resulting supernatant was, again, centrifuged at 35,000×g for 30 minutes and the membrane pellet was collected and resuspended in Tris buffer with 0.3 M sucrose. The protein concentration was determined. Membranes were stored frozen at −20 C until use. Before use, placental membranes were diluted to 5,000 μg/mL with Tris buffer containing 0.5% BSA and 50 U/mL bacitracin. Placental membranes (100 μL) were used with varying concentrations of mammalian GnRH (SEQ ID NO: 5), Buserelin (SEQ ID NO: 10), chicken II GnRH (SEQ ID NO: 6), D-Arg (6)-chicken II GnRH-des-Gly (10)-ethylamide (SEQ ID NO: 2), or D-Arg (6)-chicken II GnRH-aza-Gly (10)-amide (SEQ ID NO: 2) (100 μL) and either radiolabeled Buserelin (SEQ ID NO: 10) or radiolabeled D-Arg (6)-chicken II GnRH-aza-Gly (10)-amide (SEQ ID NO: 2) (100 μL/tube and iodinated). Following incubation at room temperature for 4 hours, the bound and free hormones were separated using polyethylene glycol precipitation, followed by centrifugation. The binding affinity for each GnRH isoform or analog was calculated using the double reciprocal plot of bound versus free ligand. Each study was done using three different human term placental tissues.

[8] = tested on: early human placental explants; experiment: Placental explant perifusion, hCG release; assay type: cell-based
Description: Placental tissues that are normally discarded were obtained from unidentified patients following first trimester pregnancy termination (early human placental explants). Tissue fragments, dissected of vessels and membranes, were placed in a perfusion system for study of 20 replicate chambers of the same tissue. This allows for simultaneous dose-response studies to be performed. To achieve this specific aim, explants from a given placenta were placed in 20 replicate chambers and perfused with basal medium for three hours at a rate of 6 ml/hr (dead volume of the system at 6 ml/hr is ten minutes). After three hours of equilibration, the analog was added to the basal perfusing medium. Quaduplicate chambers were made for chicken II GnRH analog (SEQ ID NO: 2) at 0, 10^−9, 10^−8, 10^−7, 10^−6 M and Buserelin (SEQ ID NO: 10) at 10^−7 M. The effluent medium of each chamber was collected after a three hour equilibration period. Two basal samples, at half hour intervals were collected, media with test substances was initiated and effluent medium collection continued for four and one half hours at thirty minute intervals. The hCG release was analyzed in each of these experiments. FIGS. 16 and 17 illustrate a typical response. […] Maximal response was observed within minutes after initiation of perfusion at 10^−8 M, with possible down regulation beginning after five hours at 10^−6 M as illustrated in FIG. 18.
In additional experiments, early gestation human placentas were perfused for six hours with medium supplemented with estradiol, progesterone, bovine serum albumin, and antibiotics (basal medium). Twenty replicate chambers were perifused with basal medium for two hours, then triplicate chambers were perifused with the medium containing either Buserelin (SEQ ID NO: 10), or 10^−9, 10^−8, 10^−7, 10^−6 M of a chicken II GnRH analog (SEQ ID NO: 2), leaving five control chambers. The eluted medium was collected at thirty minute intervals, starting one hour prior to the addition of GnRH analogs and throughout five hours of treatment. hCG released into the effluent media, as well as the production of GnRH, were measured using sensitive and specific radioimmunoassays. The release of hCG at each time point was normalized to its zero treatment release and the release throughout the treatment period and its average release was compared for various treatment regimens. These studies were repeated using tissues from three different first trimester placentas. The results of this experiment are illustrated in FIG. 20.

placental GnRH receptor = experiment: Mean
Description: Table printed on a drawing sheet, Fig. 1
The patent's description of the figure: FIG. 1. Placental Kds for Chicken II and Mammalian GnRH Analogs
First copying reader's note: Each column is one GnRH analog; the rows are Kd values in individual placentas, followed by the mean and SEM.
Where the first naming reader finds the target: passage: the affinity for the placental GnRH receptor was enhanced 2 fold

baboon granulosa cells = experiment: Baboon granulosa cell culture, progesterone release; assay type: cell-based; conditions: chicken II analog 10^−9 to 10^−6 M; Buserelin 10^−7
Description: The biopotency of chicken II GnRH analogs (SEQ ID NO: 2) in the regulation of baboon ovarian function was studied. The effect of mammalian and chicken II GnRH analogs (SEQ ID NO: 2) on ovarian progesterone release was studied using granulosa cell cultures. The dose-related action of a stable analog of chicken II GnRH (SEQ ID NO: 2) on progesterone production was defined using baboon granulosa cell cultures. After a two hour basal study period, the medium was supplemented with either Buserilin (SEQ ID NO: 10) (10^−7) or a chicken II GnRH analog (SEQ ID NO: 2) (10^−9, 10^−8, 10^−7, 10^−6 M) leaving four control wells. […] This inhibition was sustained after 48 hours of treatment. […] In addition, the action of the analog on three different stromal and three different epithelial endometrial primary cell lines (after 3-5 passages) has been studied and PGE2 determined as indicated in FIG. 31.

Kd ([2]; 125I-Buserelin, Example VI, read-out: Kd)	Ks for degradation by ovarian tissues [3]	degradation by / competition for C-ase-1, in words [4]	Ks for degradation by C-ase-1 ([5]; Lineweaver-Burke plot)	decrease of affinity when the analog is used as label [7]	SMILES	Km [1]	effect on progesterone release [6]	effect on release of hCG [6]	hCG response ([8]; 10^−7 M)	average stimulation of hCG release, relative to control tissues ([8]; throughout five hours of perifusion)	Kd (placental GnRH receptor)	receptor activity/potency compared with GnRH ([2]; 125I-Buserelin, Example VI)	receptor binding potency compared with mammalian GnRH ([2]; Buserelin label, Example II)	degradation by / competition for C-ase-1, in words [5]	degradation/competition relative to mammalian GnRH ([5]; Example III)	Ki ([5]; competition for degradation of mammalian GnRH, Example III)	effect on progesterone release, in words (baboon granulosa cells)
1000 nM	~30 nM	actively degraded	~30 nM	1.5 times	CC(C)C[C@H](NC(=O)CNC(=O)[C@H](Cc1ccc(O)cc1)NC(=O)[C@H](CO)NC(=O)[C@H](Cc1c[nH]c2ccccc12)NC(=O)[C@H](Cc1cnc[nH]1)NC(=O)[C@@H]1CCC(=O)N1)C(=O)N[C@@H](CCCNC(=N)N)C(=O)N1CCC[C@H]1C(=O)NCC(N)=O [mammalian GnRH]	0.01 µM	not affected by mammalian GnRH (SEQ ID NO: 5) in two of four placentas, but in one placenta it was significantly increased and in the other was decreased	no significant effect									
					CCNC(=O)[C@@H]1CCCN1C(=O)[C@H](CCCNC(=N)N)NC(=O)[C@H](CC(C)C)NC(=O)[C@@H](COC(C)(C)C)NC(=O)[C@H](Cc1ccc(O)cc1)NC(=O)[C@H](CO)NC(=O)[C@H](Cc1c[nH]c2ccccc12)NC(=O)[C@H](Cc1cnc[nH]1)NC(=O)[C@@H]1CCC(=O)N1 [Buserelin]				small stimulation of hCG at early time points	150%	579 ± 84 nM	twice as active	three-fold more potent	potent competitive inhibitors	one fourth the rate	110 nM	without significant effect
